# Like-named read-outs stand apart in the source and are kept apart here.
# Legend:
# CYP3A4 = CYP3A4 (Homo sapiens, UniProt P08684); experiment: Determination of CYP3A4 inhibitory activity (human liver microsome, Luciferin-IPA)
# Procedure, shortened: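 Final compound concentrations 37, 111, 333, 1000 and 3000 nM; reaction at 37° C for 11 min, then luciferin detection reagent 5 min at room temperature with luminescence read-out. IC50 from nonlinear regression of dose-response.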
# P-glycoprotein = molecular target: T1, P-glycoprotein (Homo sapiens, UniProt P08183); experiment: Determination of P-glycoprotein inhibitory activity (MTT cell growth, MES-SA/DX5 cells with docetaxel or paclitaxel); format: cell-based; settings: compound + 100 nM docetaxel or 200 nM paclitaxel, 3 days
# T1 construct: A P-glycoprotein overexpressing cell line derived from the human uterine sarcoma cell line MES-SA; host or cells: MES-SA/DX5 (human uterine sarcoma, doxorubicin-selected)
# Method: A P-glycoprotein overexpressing cell line derived from the human uterine sarcoma cell line MES-SA (i.e., MES-SA/DX5 cells (ATCC)) was seeded by stepwise exposures to increasing concentrations of doxorubicin, in a 96-well plate at 6,500 cells/100 μL media (McCoy's 5A+10% FBS) in each well. The cells were incubated overnight at 37° C., 5% CO2. […] DMSO was used as a negative control and known P-glycoprotein inhibitor, encequidar methane sulfonic acid monohydrate (HM30181A), was used as a positive control. […] Treated cells were incubated for 3 days at 37° C., 5% CO2.
# To value (reflecting the starting number of cells upon Compound treatment) of 3 wells of cells was determined by performing the following steps 1-4 as described below.
# 1. 10 μL MTT (5 mg/mL in PBS) was added to each well and incubated for 1.5 hours at 37° C., 5% CO2.
# 2. Culture media was removed and 100 μL of DMSO was added to each well.
# 3. The plate was gently shook until all purple MTT formazan crystals were dissolved. OD540 was then measured using microplate reader.
# 4. Cell growth percentage was calculated with the following equation:
# Cell growth percentage=(T−T0)/(C−T0)×100%,
# [1] = Oral absorption of docetaxel in mice (plasma pharmacokinetics of oral docetaxel co-dosed with compound); format: in vivo; settings: CD-1 mice
# Method: In vivo activity of the compounds of the present disclosure was performed as follows: Eighteen 7- to 9-week-old CD-1 mice were fasted overnight prior to drug administration while they were allowed free access to water and were fed 4 hours post dosing. Mice were divided into four groups of three to five […] each.
# Blood samples (approx. 30-50 μL) were obtained via peripheral veins of each mouse before (0) and 0.25, 0.5, 1, 2, 4, and 8 hours after docetaxel administration for control group (entry 1, Table C) and at 0.25, 0.5, 1, 2, 4, and 8 hours after docetaxel administration for rest of the groups (entries 2-4, Table C). Blood samples were treated with EDTA-K2 as anti-coagulant and placed on ice until centrifugation. Each blood sample was centrifuged at 4° C., 3000 g for 15 min within 0.5 hour from plasma collection. An aliquot of 20 μL plasma sample was protein precipitated with 100 μL IS (Internal Standard) solution (100 ng/mL labetalol+100 ng/mL tolbutamide in acetonitrile, 1:1), the mixture was vortex-mixed and centrifuged at 4000 rpm for 15 min at 4° C. An aliquot of 80 μL sample was transferred to a sample plate and mixed with 80 μL water, then the plate was shook at 800 rpm for 10 min. 1-10 μL of the supernatant was then injected for LC-MS/MS analysis under the following conditions:
# MS conditions: ESI, positive;
# Column: Waters ACQUITY UPLC BEH C18 2.1×50 mm, 1.7 μm;
# Mobile phase A: 0.1% formic acid in water; and
# Mobile phase B: 0.1% formic acid in acetonitrile.
# [2] = CYP3A4 IC50 (nM), 37° C. 11 minutes
# [3] = oral docetaxel 10 mg/kg with oral compound (Compound 16 80 mg/kg, Compound 48 20 mg/kg, encequidar 10 mg/kg), plasma
# Sequence of CYP3A4 (P08684 whole entry): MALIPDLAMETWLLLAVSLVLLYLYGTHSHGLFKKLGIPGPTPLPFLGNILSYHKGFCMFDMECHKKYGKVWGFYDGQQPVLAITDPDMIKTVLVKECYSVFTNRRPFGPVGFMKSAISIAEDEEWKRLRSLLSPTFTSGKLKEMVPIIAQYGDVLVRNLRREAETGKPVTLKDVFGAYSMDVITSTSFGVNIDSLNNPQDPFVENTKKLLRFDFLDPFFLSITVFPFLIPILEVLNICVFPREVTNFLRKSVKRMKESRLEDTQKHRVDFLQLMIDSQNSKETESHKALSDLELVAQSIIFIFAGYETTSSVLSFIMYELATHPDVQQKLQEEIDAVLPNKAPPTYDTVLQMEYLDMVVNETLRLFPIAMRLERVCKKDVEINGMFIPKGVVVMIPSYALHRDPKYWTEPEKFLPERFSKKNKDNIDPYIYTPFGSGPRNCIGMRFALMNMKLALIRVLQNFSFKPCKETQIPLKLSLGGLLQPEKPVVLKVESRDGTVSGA
# T1 sequence (P08183 whole entry): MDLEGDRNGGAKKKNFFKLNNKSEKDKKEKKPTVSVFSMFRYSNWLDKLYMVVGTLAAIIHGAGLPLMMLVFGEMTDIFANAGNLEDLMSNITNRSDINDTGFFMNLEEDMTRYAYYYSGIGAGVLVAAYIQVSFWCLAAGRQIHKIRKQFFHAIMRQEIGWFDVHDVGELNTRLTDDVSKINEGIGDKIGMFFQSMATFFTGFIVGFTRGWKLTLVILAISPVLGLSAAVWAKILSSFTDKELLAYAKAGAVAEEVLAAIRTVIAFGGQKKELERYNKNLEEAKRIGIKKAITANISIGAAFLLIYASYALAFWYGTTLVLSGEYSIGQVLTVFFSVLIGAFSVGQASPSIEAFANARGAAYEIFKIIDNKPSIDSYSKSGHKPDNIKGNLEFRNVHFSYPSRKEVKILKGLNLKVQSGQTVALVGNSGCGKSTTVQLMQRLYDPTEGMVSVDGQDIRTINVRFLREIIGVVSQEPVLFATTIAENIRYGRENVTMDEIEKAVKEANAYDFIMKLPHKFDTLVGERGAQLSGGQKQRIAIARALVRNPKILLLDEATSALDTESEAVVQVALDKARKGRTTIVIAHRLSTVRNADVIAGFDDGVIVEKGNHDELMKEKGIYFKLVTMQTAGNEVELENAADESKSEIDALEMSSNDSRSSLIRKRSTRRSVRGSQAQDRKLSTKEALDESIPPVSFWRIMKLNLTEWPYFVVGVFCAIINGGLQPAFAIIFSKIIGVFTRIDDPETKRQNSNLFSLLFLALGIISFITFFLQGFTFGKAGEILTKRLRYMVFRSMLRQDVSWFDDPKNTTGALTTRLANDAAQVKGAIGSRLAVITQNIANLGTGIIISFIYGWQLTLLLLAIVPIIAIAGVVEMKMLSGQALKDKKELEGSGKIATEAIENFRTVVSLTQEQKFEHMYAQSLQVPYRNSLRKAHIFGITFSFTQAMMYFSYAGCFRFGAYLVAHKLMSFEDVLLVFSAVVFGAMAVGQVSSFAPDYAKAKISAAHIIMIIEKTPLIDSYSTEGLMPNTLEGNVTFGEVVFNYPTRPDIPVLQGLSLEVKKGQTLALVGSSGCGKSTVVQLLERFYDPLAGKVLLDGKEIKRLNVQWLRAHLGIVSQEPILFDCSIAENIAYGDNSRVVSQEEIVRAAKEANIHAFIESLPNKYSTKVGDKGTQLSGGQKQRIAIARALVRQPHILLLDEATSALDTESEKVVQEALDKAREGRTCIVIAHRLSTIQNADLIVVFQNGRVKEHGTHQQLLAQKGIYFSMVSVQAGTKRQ
Structure (SMILES),IC50 (CYP3A4; [2]),further results
COc1cc(NC(=O)c2cc(=O)c3ccccc3o2)c(C(=O)Nc2ccc(CCN(Cc3cccc(-n4ccnc4)c3)Cc3cccc(-n4ccnc4C)c3)cc2)cc1OC [Compound 245],250 to 500 nM,
COc1cc(NC(=O)c2cc(=O)c3ccccc3o2)c(C(=O)Nc2ccc(CCN(Cc3cncc(O)c3)Cc3ccc4c(c3)c(C)nn4C)cc2)cc1OC [Compound 247],100 to 250 nM,
COc1cncc(CN(CCc2ccc(NC(=O)c3cc(OC)c(OC)cc3NC(=O)c3cc(=O)c4ccccc4o3)cc2)Cc2ccc3c(cnn3C(C)=O)c2)c1 [Compound 252],250 to 500 nM,
Cn1ncc2cc(CNCCc3ccc(NC(=O)c4ccc(C(=O)O)cc4NC(=O)c4cc(=O)c5ccccc5o4)cc3)ccc21 [Compound 256],> 1000 nM,
COC(=O)c1ccc(C(=O)Nc2ccc(CCN(Cc3cncc(OC)c3)Cc3cncc(OC)c3)cc2)c(NC(=O)c2cc(=O)c3ccccc3o2)c1 [Compound 258],< 100 nM,
COc1cncc(CN(CCc2ccc(NC(=O)c3ccc(C(=O)O)cc3NC(=O)c3cc(=O)c4ccccc4o3)cc2)Cc2ccc3c(cnn3C)c2)c1 [Compound 259],> 1000 nM,
COc1cc2c(cc1OC)CN(CCc1ccc(NC(=O)c3ccc(C(=O)O)cc3NC(=O)c3cc(=O)c4ccccc4o3)cc1)CC2 [Compound 261],> 1000 nM,
COc1cc2c(cc1OC)CN(CCc1ccc(NC(=O)c3ccc(C(=O)OCCCn4ccnc4)cc3NC(=O)c3cc(=O)c4ccccc4o3)cc1)CC2 [Compound 262],< 100 nM,
COC(=O)c1ccc(C(=O)Nc2ccc(CCN(Cc3ccc(OC)c(OC)c3)Cc3ccc(OC)c(OC)c3)cc2)c(NC(=O)c2cc(=O)c3ccccc3o2)c1 [Compound 263],> 1000 nM,
Cn1ncc2cc(CN(CCc3ccc(NC(=O)c4ccc(C(=O)O)cc4NC(=O)c4cc(=O)c5ccccc5o4)cc3)Cc3ccc4c(cnn4C)c3)ccc21 [Compound 267],> 1000 nM,
COc1cncc(CN(CCc2ccc(NC(=O)c3ccc(C(=O)OCCN4CCN(C)CC4)cc3NC(=O)c3cc(=O)c4ccccc4o3)cc2)Cc2ccc3c(cnn3C)c2)c1 [Compound 272],250 to 500 nM,
COC(=O)c1ccc(C(=O)Nc2ccc(CCN(C)Cc3ccc4c(cnn4C)c3)cc2)c(NC(=O)c2ccccn2)c1 [Compound 277],> 1000 nM,
COc1cncc(CN(CCc2ccc(NC(=O)c3ccc(C(=O)NS(=O)(=O)N(C)C)cc3NC(=O)c3cc(=O)c4ccccc4o3)cc2)Cc2ccc3c(cnn3C)c2)c1 [Compound 278],250 to 500 nM,
COc1cc2c(cc1OC)CN(CCc1ccc(-n3nnc(-c4cc(OC)c(OC)cc4NC(=O)c4cc(=O)c5ccccc5o4)n3)cc1)CC2.CS(=O)(=O)O.O [encequidar methane sulfonic acid monohydrate],,"EC50 (P-glycoprotein): < 100 nM; IC50 (CYP3A4; read-out: CYP3A4 IC50, 37° C. 11 minutes): > 1000 nM; AUC0-inf of oral docetaxel (area under the curve of plasma concentration) [1, 3]: 698 ± 238 ng·h/mL; Cmax of oral docetaxel (maximum plasma concentration) [1, 3]: 316 ± 98.1 ng/mL; Tmax of oral docetaxel (time at the maximum plasma concentration) [1, 3]: 42 ± 16.4 min; increase in the systemic bioavailability of orally dosed docetaxel ([1]; as compared to when there was no inhibitor): 3.4 fold"

# Further lines, with some results ahead:
IC50 (CYP3A4; [2]),Structure (SMILES),further results
> 1000 nM,COc1cc(NC(=O)c2cc(=O)c3ccccc3o2)c(C(=O)Nc2ccc(CCN(Cc3cncc(OCCN)c3)Cc3ccc4c(cnn4C)c3)cc2)cc1OC [Compound 246],
250 to 500 nM,CCn1ncc2cc(CN(CCc3ccc(NC(=O)c4cc(OC)c(OC)cc4NC(=O)c4cc(=O)c5ccccc5o4)cc3)Cc3cccnc3)ccc21 [Compound 248],
> 1000 nM,COc1cc(NC(=O)c2cc(=O)c3ccccc3o2)c(C(=O)Nc2ccc(CCN(Cc3cccc(-n4ccnc4C)c3)Cc3ccc4c(cnn4C)c3)cc2)cc1OC [Compound 249],
100 to 250 nM,COc1cc(NC(=O)c2cc(=O)c3ccccc3o2)c(C(=O)Nc2ccc(CCN(Cc3cccnc3)Cc3ccc(C)c4ncccc34)cc2)cc1OC [Compound 250],
> 1000 nM,COc1cc(NC(=O)c2cc(=O)c3cc(C)ccc3o2)c(C(=O)Nc2ccc(CCN(Cc3ccc4c(cnn4C)c3)Cc3ccc4c(c3)nnn4C)cc2)cc1OC [Compound 251],
500 to 1000 nM,COc1cc(NC(=O)c2cc(=O)c3ccccc3o2)c(C(=O)Nc2ccc(CCN(Cc3cncc(C(C)C)c3)Cc3ccc4c(cnn4C)c3)cc2)cc1OC [Compound 253],
> 1000 nM,COc1cc(NC(=O)c2cc(=O)c3ccccc3o2)c(C(=O)Nc2ccc(CCN(Cc3cncc(-c4ccccc4)c3)Cc3ccc4c(cnn4C)c3)cc2)cc1OC [Compound 254],
> 1000 nM,COc1cc(NC(=O)c2cc(=O)c3cc(C)ccc3o2)c(C(=O)Nc2ccc(CCN(Cc3cncc(-c4ccccc4)c3)Cc3ccc4c(cnn4C)c3)cc2)cc1OC [Compound 255],
> 1000 nM,COC(=O)c1ccc(C(=O)Nc2ccc(CCN(Cc3ccc4c(cnn4C)c3)Cc3ccc4c(cnn4C)c3)cc2)c(NC(=O)c2cc(=O)c3ccccc3o2)c1 [Compound 257],
< 100 nM,COC(=O)c1ccc(C(=O)Nc2ccc(CCN(Cc3cccc(-n4ccnc4)c3)Cc3cccc(-n4ccnc4)c3)cc2)c(NC(=O)c2cc(=O)c3ccccc3o2)c1 [Compound 260],
> 1000 nM,COc1ccc(CN(CCc2ccc(NC(=O)c3ccc(C(=O)O)cc3NC(=O)c3cc(=O)c4ccccc4o3)cc2)Cc2ccc(OC)c(OC)c2)cc1OC [Compound 264],
> 1000 nM,COc1ccc(CN(CCc2ccc(NC(=O)c3ccc(C(=O)OCc4cccnc4)cc3NC(=O)c3cc(=O)c4ccccc4o3)cc2)Cc2ccc(OC)c(OC)c2)cc1OC [Compound 265],
> 1000 nM,Cn1ncc2cc(CN(CCc3ccc(NC(=O)c4ccc(C(=O)OCc5cncs5)cc4NC(=O)c4cc(=O)c5ccccc5o4)cc3)Cc3ccc4c(cnn4C)c3)ccc21 [Compound 266],
> 1000 nM,Cn1ncc2cc(CN(CCc3ccc(NC(=O)c4ccc(C(=O)OCc5cccnc5)cc4NC(=O)c4cc(=O)c5ccccc5o4)cc3)Cc3ccc4c(cnn4C)c3)ccc21 [Compound 268],
> 1000 nM,COC(=O)c1ccc(C(=O)Nc2ccc(CCN(C)Cc3ccc4c(cnn4C)c3)cc2)c(NC(=O)c2cc(=O)c3ccccc3o2)c1 [Compound 270],
> 1000 nM,CN(CCc1ccc(NC(=O)c2ccc(C(=O)O)cc2NC(=O)c2cc(=O)c3ccccc3o2)cc1)Cc1ccc2c(cnn2C)c1 [Compound 271],
100 to 250 nM,CN(CCc1ccc(NC(=O)c2ccc(C(=O)OCc3cscn3)cc2NC(=O)c2cc(=O)c3ccccc3o2)cc1)Cc1ccc2c(cnn2C)c1 [Compound 280],
> 1000 nM,COC(=O)c1ccc(C(=O)Nc2ccc(CCN(C)Cc3ccc4c(cnn4C)c3)cc2)c(NC(=O)c2cnc3ccccc3c2)c1 [Compound 281],
500 to 1000 nM,CN(CCc1ccc(NC(=O)c2ccc(C(=O)OCc3cncs3)cc2NC(=O)c2cnc3ccccc3c2)cc1)Cc1ccc2c(cnn2C)c1 [Compound 283],
